Key:
M14 = test: cells; settings: Homo sapiens, M14, 48 h; for CC50: read-out: LC50
SW-620 = test: cells; settings: Homo sapiens, SW-620, 48 h; for CC50: read-out: LC50
TK-10 = test: cells; settings: Homo sapiens, TK-10, 48 h; for CC50: read-out: LC50
MCF7 = test: cells; settings: Homo sapiens, MCF7, 48 h; for CC50: read-out: LC50
HOP-92 = test: cells; settings: Homo sapiens, HOP-92, 48 h; for CC50: read-out: LC50
EKVX = test: cells; settings: Homo sapiens, 48 h; for CC50: read-out: LC50
LOX IMVI = test: cells; settings: Homo sapiens, 48 h
MOLT-4 = test: cells; settings: Homo sapiens, MOLT-4, 48 h; for CC50: read-out: LC50
ACHN = test: cells; settings: Homo sapiens, 48 h; for CC50: read-out: LC50
UACC-257 = test: cells; settings: Homo sapiens, UACC-257, 48 h; for CC50: read-out: LC50
HCT-116 = test: cells; settings: Homo sapiens, HCT-116, 48 h; for CC50: read-out: LC50
PC-3 = test: cells; settings: Homo sapiens, PC-3, 48 h; for CC50: read-out: LC50
60 cancer cell lines = test: NCI-60 one-dose screen (10 μM); type: cell-based; settings: Homo sapiens; one dose of 10 μM, mean over 60 cancer cell lines; read-out: Mean Growth Percent (MGP)
From the text: Additionally, the mean of the growth percentages (MGP) of each compound against all the 60 cancer cell lines is also reported, which is used as one of the selection criteria to continue with tests at five concentration doses.

SK-OV-3 = test: cells; settings: Homo sapiens, SK-OV-3, 48 h; for CC50: read-out: LC50
MALME-3M = test: cells; settings: Homo sapiens, 48 h
RXF 393 = test: cells; settings: Homo sapiens, RXF 393, 48 h
SN12C = test: cells; settings: Homo sapiens, 48 h; for CC50: read-out: LC50
OVCAR-5 = test: cells; settings: Homo sapiens, OVCAR-5, 48 h; for CC50: read-out: LC50
A498 = test: cells; settings: Homo sapiens, A498, 48 h; for CC50: read-out: LC50
NCI-H226 = test: cells; settings: Homo sapiens, NCI-H226, 48 h; for CC50: read-out: LC50
HL-60(TB) = test: cells; settings: Homo sapiens, HL-60, 48 h; for CC50: read-out: LC50
MDA-MB-231/ATCC = test: cells; settings: Homo sapiens, MDA-MB-231, 48 h
MDA-MB-435 = test: cells; settings: Homo sapiens, MDA-MB-435, 48 h; for CC50: read-out: LC50
SK-MEL-28 = test: cells; settings: Homo sapiens, SK-MEL-28, 48 h; for CC50: read-out: LC50
A549/ATCC = test: cells; settings: Homo sapiens, A549, 48 h; for CC50: read-out: LC50
OVCAR-8 = test: cells; settings: Homo sapiens, OVCAR-8, 48 h; for CC50: read-out: LC50
HS 578T = test: cells; settings: Homo sapiens, 48 h; for CC50: read-out: LC50
SF-539 = test: cells; settings: Homo sapiens, SF-539, 48 h; for CC50: read-out: LC50, SF-539, 48 h
BT-549 = test: cells; settings: Homo sapiens, BT-549, 48 h; for CC50: read-out: LC50
NCI-H460 = test: cells; settings: Homo sapiens, NCI-H460, 48 h; for CC50: read-out: LC50
K-562 = test: cells; settings: Homo sapiens, K562, 48 h; for GI50: K-562, 48 h; for CC50: read-out: LC50
CCRF-CEM = test: cells; settings: Homo sapiens, 48 h; for CC50: read-out: LC50
HCC-2998 = test: cells; settings: Homo sapiens, HCC 2998, 48 h; for CC50: read-out: LC50
RPMI-8226 = test: cells; settings: Homo sapiens, RPMI-8226, 48 h; for CC50: read-out: LC50
IGROV1 = test: cells; settings: Homo sapiens, IGROV-1, 48 h
SNB-75 = test: cells; settings: Homo sapiens, SNB-75, 48 h; for CC50: read-out: LC50
[1] = Hemolytic activity, spectrophotometric; type: cell-based, human; settings: human, human red blood cells (huRBC), 5% hematocrit, 200 μg/mL, 37 °C

Cc1ccc(C2CC(c3ccc(Nc4nc(NCCO)nc(Nc5ccc(Cl)cc5)n4)cc3)=Nc3c(N)nc(N)nc3N2)cc1 (stereo not drawn) [33b] showed a GI50 (M14) of 1.84 µM, a CC50 (M14) of 5.99 µM and a GI50 (SW-620) of 1.79 µM. The CC50 (SW-620) was 6.12 µM, the GI50 (TK-10) was 1.9 µM and the CC50 (TK-10) was 6.02 µM. For the same molecule, the GI50 (MCF7) was 1.46 µM, the CC50 (MCF7) was 6.22 µM and the GI50 (HOP-92) was 1.3 µM. For the same molecule, the CC50 (HOP-92) was 6.3 µM, the GI50 (EKVX) was 1.55 µM and the CC50 (EKVX) was 5.71 µM. The GI50 (LOX IMVI) was 1.65 µM, the CC50 (LOX IMVI; read-out: LC50, LOX IMVI, 48 h) was 5.69 µM and the GI50 (MOLT-4) was 1.38 µM. For the same molecule, the CC50 (MOLT-4) was over 100 µM, the GI50 (ACHN) was 1.72 µM and the CC50 (ACHN) was 5.56 µM. For the same molecule, the GI50 (UACC-257) was 1.84 µM, the CC50 (UACC-257) was 6.54 µM and the GI50 (HCT-116) was 1.62 µM. It also gave a CC50 (HCT-116) of 5.45 µM, a GI50 (PC-3) of 1.74 µM and a CC50 (PC-3) of 7.43 µM. It also gave an activity at 10 µM (60 cancer cell lines) of -21.8%, a GI50 (SK-OV-3) of 2.69 µM and a CC50 (SK-OV-3) of 25.6 µM. For the same molecule, the GI50 (MALME-3M) was 1.7 µM, the CC50 (MALME-3M; read-out: LC50) was 6.69 µM and the GI50 (RXF 393) was 1.45 µM. The GI50 (SN12C) was 1.79 µM, the CC50 (SN12C) was 6.39 µM and the GI50 (OVCAR-5) was 1.62 µM. It also gave a CC50 (OVCAR-5) of 5.59 µM, a GI50 (A498) of 3.85 µM and a CC50 (A498) of 42 µM. The GI50 (NCI-H226) was 16.7 µM, the CC50 (NCI-H226) was 88.2 µM and the GI50 (HL-60(TB)) was 1.71 µM. For the same molecule, the CC50 (HL-60(TB)) was over 100 µM, the GI50 (MDA-MB-231/ATCC) was 1.67 µM and the CC50 (MDA-MB-231/ATCC; read-out: LC50) was 6.37 µM. For the same molecule, the GI50 (MDA-MB-435) was 1.73 µM, the CC50 (MDA-MB-435) was 5.68 µM and the GI50 (SK-MEL-28) was 1.77 µM. The CC50 (SK-MEL-28) was 5.65 µM, the GI50 (A549/ATCC) was 1.74 µM and the CC50 (A549/ATCC) was 6.8 µM. The GI50 (OVCAR-8) was 1.8 µM, the CC50 (OVCAR-8) was 7.55 µM and the GI50 (HS 578T) was 1.79 µM. The CC50 (HS 578T) was over 100 µM, the GI50 (SF-539) was 1.57 µM and the CC50 (SF-539) was 5.63 µM. For the same molecule, the GI50 (BT-549) was 1.73 µM, the CC50 (BT-549) was 5.69 µM and the GI50 (NCI-H460) was 1.8 µM. For the same molecule, the CC50 (NCI-H460) was 6.41 µM, the GI50 (K-562) was 1.34 µM and the CC50 (K-562) was 24.9 µM. The GI50 (CCRF-CEM) was 1.67 µM, the CC50 (CCRF-CEM) was over 100 µM and the GI50 (HCC-2998) was 1.55 µM. For the same molecule, the CC50 (HCC-2998) was 5.56 µM, the GI50 (RPMI-8226) was 1.83 µM and the CC50 (RPMI-8226) was over 100 µM. The GI50 (IGROV1) was 1.65 µM, the CC50 (IGROV1; read-out: LC50) was 5.98 µM and the GI50 (SNB-75) was 1.62 µM. For the same molecule, the CC50 (SNB-75) was 6.73 µM.
Nc1nc(N)c2c(n1)NC(c1ccc(F)cc1)CC(c1ccc(Nc3nc(NCCO)nc(Nc4ccc(Cl)cc4)n3)cc1)=N2 (stereo not drawn) [33f] gave a GI50 (M14) of 1.66 µM, a CC50 (M14) of 6.58 µM and a GI50 (SW-620) of 1.6 µM. It also gave a CC50 (SW-620) of 6.68 µM, a GI50 (TK-10) of 4.61 µM and a CC50 (TK-10) of 45.5 µM. For the same molecule, the GI50 (MCF7) was 0.956 µM, the CC50 (MCF7) was 6 µM and the GI50 (HOP-92) was 1.25 µM. For the same molecule, the CC50 (HOP-92) was 10.2 µM, the GI50 (EKVX) was 1.66 µM and the CC50 (EKVX) was 24 µM. It also gave a GI50 (LOX IMVI) of 1.52 µM, a GI50 (MOLT-4) of 0.532 µM and a CC50 (MOLT-4) of over 100 µM. It also gave a GI50 (ACHN) of 3.22 µM, a CC50 (ACHN) of over 100 µM and a GI50 (UACC-257) of 1.85 µM. It also gave a CC50 (UACC-257) of 6.69 µM, a GI50 (HCT-116) of 1.2 µM and a CC50 (HCT-116) of 5.23 µM. The GI50 (PC-3) was 1.72 µM, the CC50 (PC-3) was over 100 µM and the activity at 10 µM (60 cancer cell lines) was -3.41%. It also gave a GI50 (SK-OV-3) of 12.9 µM, a CC50 (SK-OV-3) of 50.5 µM and a GI50 (MALME-3M) of 1.66 µM. For the same molecule, the GI50 (RXF 393) was 1.17 µM, the CC50 (RXF 393; read-out: LC50) was 5.9 µM and the GI50 (SN12C) was 2.08 µM. It also gave a CC50 (SN12C) of over 100 µM, a GI50 (OVCAR-5) of 5.1 µM and a CC50 (OVCAR-5) of over 100 µM. The GI50 (A498) was 3.72 µM, the CC50 (A498) was 39.1 µM and the GI50 (NCI-H226) was 2.49 µM. For the same molecule, the CC50 (NCI-H226) was 37.9 µM, the GI50 (HL-60(TB)) was 0.863 µM and the CC50 (HL-60(TB)) was over 100 µM. The GI50 (MDA-MB-231/ATCC) was 1.78 µM, the GI50 (MDA-MB-435) was 1.7 µM and the CC50 (MDA-MB-435) was 7.42 µM. The GI50 (SK-MEL-28) was 1.7 µM, the CC50 (SK-MEL-28) was 5.93 µM and the GI50 (A549/ATCC) was 3.12 µM. For the same molecule, the CC50 (A549/ATCC) was over 100 µM, the GI50 (OVCAR-8) was 1.16 µM and the CC50 (OVCAR-8) was 6.81 µM. For the same molecule, the GI50 (HS 578T) was 2.04 µM, the CC50 (HS 578T) was over 100 µM and the hemolysis at 24 h, 200 µg/mL [1] was 5%. It also gave a GI50 (SF-539) of 1.56 µM, a CC50 (SF-539) of 6.36 µM and a GI50 (BT-549) of 1.56 µM. The CC50 (BT-549) was 6.47 µM, the GI50 (NCI-H460) was 1.71 µM and the CC50 (NCI-H460) was 7.73 µM. The GI50 (K-562) was 0.489 µM, the CC50 (K-562) was over 100 µM and the GI50 (CCRF-CEM) was 0.754 µM. The CC50 (CCRF-CEM) was over 100 µM, the GI50 (HCC-2998) was 1.61 µM and the CC50 (HCC-2998) was 5.78 µM. It also gave a GI50 (RPMI-8226) of 1.01 µM, a CC50 (RPMI-8226) of over 100 µM and a GI50 (IGROV1) of 1.7 µM. For the same molecule, the GI50 (SNB-75) was 3.35 µM and the CC50 (SNB-75) was 45.4 µM.
